Results published in patent US7807368B2, “Cyclin-dependent kinase inhibitors as targets for opiod growth factor treatment” (priority 2006, dated 2010).
“Also recorded” adds a separate entry of the source.

How the values were obtained:
Format in all cases: cell-based, human
p16 [1] = assay: Western blot of p16, other CKIs and Cdk4 in SCC-1 cells
Method: Synchronized cells (˜2×10^6) from each treatment were solubilized in 200 μl RIPA buffer (1×PBS, 10 μM IGEPAL, 1 mg/ml SDS, 5 mg/ml deoxycholic acid), containing protease and phosphatase inhibitors (2 μg/ml aprotinin, 3 mg/ml phenylmethyl sulfonyl fluoride (PMSF), 1 mM sodium orthovanidate, 1 μM okadaic acid). Total protein concentrations were measured using the DC protein assay kit (Bio-Rad Laboratories, Hercules, Calif.). Equal amounts of protein (40 μg) were subjected to 10% SDS-PAGE followed by transfer of proteins onto polyvinylidene difluoride (Millipore, Billerica, Mass.) using standard protocols. The following antibodies were purchased from commercial sources: phospho-Rb (Ser795), phospho-Rb (Ser807/811) (Cell Signaling Technology, Beverly, Mass.); phospho-Rb (Thr821) (Biosource, Camarillo, Calif.); Cdk4, cyclin D1, p15, p16, p18, p19 (Santa Cruz Biotechnology, Santa Cruz, Calif.); total Rb, p21, p27 (BD PharMingen, San Diego, Calif.); β-actin (Clone AC-15, Sigma). The following dilutions of primary antibodies were used to detect respective proteins. 1:200 phospho-Rb (Ser795), 1:200 phospho-Rb (Ser807/811); 1:200 phospho-Rb (Thr821); 1:200 Cdk4, 1:200 cyclin D1, 1:100 p16; 1:200 total Rb, 1:200 p21, 1:100 p27. Membranes were probed with secondary anti-rabbit or anti-mouse horseradish peroxidase-conjugated antibodies (GE Healthcare-Amersham Biosciences, Piscataway, N.J.); blots were developed using a chemiluminescence Western blotting detection system (GE Healthcare-Amersham Biosciences).
To determine equal loading of total protein samples, blots were reprobed with monoclonal antibody against β-actin at a dilution of 1:2000. If necessary, membranes were stripped in stripping buffer (62.5 mM Tris-HCl and 100 mM β-mercaptoethanol/2% SDS, pH 6.7) at 50° C. before being re-probed. Means and SE were determined from 3 or more independent experiments.
To quantify expression levels or kinase activity, the optical density of each band was determined by densitometry and analyzed by QuickOne (Bio-Rad Laboratories). Each value was normalized to β-actin from the same blot. To report the changes due to OGF treatment, the fold increase was calculated by dividing the normalized value from the OGF treated samples by the normalized value of control samples at each time point; thus, increases due to OGF have values greater than one, and decreases due to OGF have values less than one.
The p16-targeted siRNAs (antisense:5′ […]-3′; sense (SEQ ID NO:5): 5′ […]-3′(SEQ ID NO:6) were obtained as ready-annealed, purified duplex probes (Invitrogen, Carlsbad, Calif.). For transfection, 2×10^5 cells per well were seeded in 6-well plates containing 1 ml of serum-free media without antibiotics. In each well, 20 nM of p16-siRNA or control siRNA solutions in serum-free media were added. Cells were incubated for 4 h at 37° C. prior to the addition of OGF. Cultures were incubated for additional 20 h, and then 1 ml fresh complete media either lacking or containing OGF was added. At the indicated time points, cells were collected for growth curves or Western blotting. Three or more independent experiments were conducted. The control siRNAs were purchased from Ambion.

p16 [2] = assay: Western blot of p16 in SCC-4 cells; details: SCC-4 cells, 3 h
Method: The SCC-1 (UM-SCC-1) cell line was obtained from the University of Michigan Cancer Research Laboratory, and CAL-27 and SCC-4 cells were obtained from the American Type Culture Collection (Manassas, Va.). SCC-1 and CAL-27 cells were cultured in DMEM media, whereas SCC-4 cells were grown in 1:1 Hams F-12 DMEM media. All media was supplemented with 10% fetal bovine serum (HyClone, Logan, Utah), 1.2% sodium bicarbonate, and 5000 units/ml penicillin, 5 μg/ml streptomycin and 10 μg/ml neomycin. OGF was purchased from Sigma-Aldrich (St. Louis, Mo.), dissolved in sterile water, and used at a final concentration of 10^−6 M.
Synchronized cells (˜2×10^6) from each treatment were solubilized in 200 μl RIPA buffer (1×PBS, 10 μM IGEPAL, 1 mg/ml SDS, 5 mg/ml deoxycholic acid), containing protease and phosphatase inhibitors (2 μg/ml aprotinin, 3 mg/ml phenylmethyl sulfonyl fluoride (PMSF), 1 mM sodium orthovanidate, 1 μM okadaic acid). Total protein concentrations were measured using the DC protein assay kit (Bio-Rad Laboratories, Hercules, Calif.). Equal amounts of protein (40 μg) were subjected to 10% SDS-PAGE followed by transfer of proteins onto polyvinylidene difluoride (Millipore, Billerica, Mass.) using standard protocols. […]

p21 = assay: Western blot of p21 in PANC-1 cells; details: synchronized PANC-1 cells, 6 hours
Method: (§1) Human pancreatic cancer cell lines BxPC-3, PANC-1, and Capan-2 were obtained from the American Type Culture Collection (Manassas, Va.), and cultured in RPMI, Dulbecco's Modified Medium, or McCoy's 5A medium, respectively. All media were supplemented with 10% fetal bovine serum, 1.2% sodium bicarbonate, and 0.25% antibiotics (5000 units/ml penicillin, 5 μg/ml streptomycin and 10 μg/ml neomycin). OGF was purchased from Sigma-Aldrich (St. Louis, Mo.), dissolved in sterile water, and used at a final concentration of 10^−6 M.
Synchronized cells (2×10^6) from each treatment were solubilized in 200 μl RIPA buffer (1×PBS, 10 μM IGEPAL, 1 mg/ml SDS, 5 mg/ml deoxycholic acid), containing protease and phosphatase inhibitors (2 μg/ml aprotinin, 3 mg/ml phenylmethyl sulfonyl fluoride, 1 mM sodium orthovanidate, 1 μM okadaic acid). Total protein concentrations were measured using the DC protein assay kit (Bio-Rad Laboratories, Hercules, Calif.). Equal amounts of protein (40 μg) were subjected to 10% SDS-PAGE followed by transfer of proteins onto polyvinylidene difluoride (Millipore, Billerica, Mass.) using standard protocols.
The p21-targeted siRNAs were obtained from Santa Cruz Biotechnology, and negative control siRNAs were purchased from Ambion (Ambion, Inc., Austin, Tex.). For transfection, 2×10^5 cells per well were seeded in 6-well plates containing 1 ml of media without antibiotics. […]

PANC-1 cells = assay: Growth curves of PANC-1 cells transfected with p21 siRNA or negative control siRNA; details: for decrease of growth: PANC-1 cells transfected with negative control siRNAs
Method: as §1
The p21-targeted siRNAs were obtained from Santa Cruz Biotechnology, and negative control siRNAs were purchased from Ambion (Ambion, Inc., Austin, Tex.). For transfection, 2×10^5 cells per well were seeded in 6-well plates containing 1 ml of media without antibiotics. For each well, 1 μl of siRNA stock (20 μM) was mixed with 175 μl of serum-free media. Two μl of Oligofectamine reagent (Invitrogen, Carlsbad, Calif.) was added to prewashed cells in each well, making the final concentration for siRNA approximately 20 nM. Cells were incubated for 4 hours at 37° C. prior to the addition of OGF. Eighteen hours later, 1 ml fresh complete media with or without OGF was added to the cultures; media and OGF were replaced daily. At the indicated time points, cells were collected for growth curves or Western blotting.

[Met^5]-enkephalin [OGF]
expression of cell cycle inhibitors p15, p18, p19, p21 and p27 (p16 [1]; OGF treatment of SCCHN): no significant effect | expression of Cdk4 protein (p16 [1]; following OGF exposure): did not change | p16 expression (p16 [1]; synchronized SCC-1 cells, 3 h, 10^-6 M OGF, 10^-5 M naloxone): significantly upregulated; also recorded: significantly elevated | p16 expression relative to synchronized control cells (p16 [2]): induced p16 expression | p21 expression relative to control cells (p21): increased p21 expression | decrease of growth (PANC-1 cells; 72 hours): 34.1% | decrease of growth (PANC-1 cells; 96 hours): 35.5% | effect on growth of cells lacking p21 (PANC-1 cells; PANC-1 cells transfected with p21 siRNA): no inhibitory effect
